Patent US6852706B1, “Methods and compositions for healing heart wounds” (The Wistar Institute, priority 2000, dated 2005)

Tests used:
[1] = system: B6 mouse; conditions: 15 days after PTU treatment
[2] = system: C57B1/6 mice
Procedure: Cardiac injury. Myocardial injury is cryogenically initiated, employing a technique adapted from Taylor et al. (1998) (ref 28). Adult MRL and C57B1/6 mice (6-8 weeks of age) were anaesthetized using an intraperitoneal injection of ketamine (100 mg/kg) and xylazine (15 mg/kg). A 2 mm diameter blunt probe cooled to the temperature of liquid Nitrogen is then introduced, trans-diaphragmatically, to the right ventricular surface of the heart.
Access to the diaphragm was accomplished by a 6-8 mm incision made through the skin on the ventral surface of the abdomen below the ribcage approximately 5 mm posterior to—and approximately 5 mm to the left of the ventral midline—the sternum. The underlying musculature was incised to an equivalent extent. The diaphragm was exposed using forceps to retract the medial lobe of the liver. The right ventricular surface of the heart was thus presented directly adjacent to, and clearly visible through, the diaphragm. Injury to the heart was achieved by holding the cryoprobe in contact with the diaphragmatic surface for 10 seconds and repeated using a second, identical cryoprobe. The abdominal musculature was then repositioned and closed using 6-0 […] suture. The 6-0 nylon suture was also used for skin closure.
Histology Frozen sections: Hearts were removed and frozen in isopentane cooled to −160° C. in liquid nitrogen. Eight micron-thick sections were cut for immunohistochemistry and histology. Fixed sections: Hearts were fixed in Prefer Fixative (Anatheh Ltd.). Paraffin-embedded sections cut to a thickness of 5 microns were used for both histology and immunohistochemistry.
We also treated nonhealer C57B1/6 mice with PTU, which is known to inhibit thyroid activity.

[3] = system: MRL mice; assay: Cryo-injury of the heart in MRL (healer) mice given slow-release T3 pellets; type: in vivo, mouse; conditions: pellets containing 0.01 mg T3, slow release (21 days), 0.0005 mg/day, injured one day later
Procedure: The underlying musculature was incised to an equivalent extent.
To determine whether administering T3 to MRL mice inhibits healing of ear and heart wounds, we placed pellets containing 0.01 mg of T3 in a slow release formulation (21 days) in MRL mice. Via these pellets, the mice received 0.0005 mg/day of T3 . Mice were injured one day later.

[4] = wounded C57B1/6 mice pretreated with PTU

SMILES | Ear hole size versus untreated B6 ear holes [1] | Proliferation in ear hole wound [1] | Heart wound healing and epithelial growth at larger concentrations ([2]; C57B1/6 mice, PTU 2 or 3 mg/day) | Epithelial layer versus untreated C57B1/6 mice [2, 4] | Growth of myocardium versus untreated C57B1/6 mice [2, 4] | Healing of heart wound [3] | Heart wound scarring / fibrotic tissue ([3]; by day 15)
CCCc1cc(=O)[nH]c(=S)[nH]1 [PTU, propylthiouracil] | smaller | impressive degree of epithelial proliferation, as well as muscle and adipocyte proliferation | better healing and greater epithelial growth | more intact epithelial layer | significantly greater growth of myocardium |  | 
N[C@@H](Cc1cc(I)c(Oc2ccc(O)c(I)c2)c(I)c1)C(=O)O [T3] |  |  |  |  |  | never healed | severely scarred, with a large degree of fibrotic tissue
